# Assay results from PubChem BioAssay AID1259418 (Broad Institute, 2018).
# Values joined by “and” are separate entries in the source; they are usually repeats but may differ in a detail not shown here. Equal values may be shown once. Results filed as inconclusive are left out. Active and inactive are the calls of the source.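 Rule for the calls: active = fitted half-maximal concentration of signal decrease at or below twice the sample's top tested concentration; inconclusive = flat curve between -70 and -30 percent, or poor fit; inactive = flat within 30 percent, signal rise, or potency above limit.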
# Molecular target: T. gondii ME49Luc in IFN-y HeLa, luciferase, 72 h
# Assay: T. gondii growth inhibition with IFN-gamma, dose response, cell-based, ME49Luc, HeLa, luciferase, 72 h (AID 1259418)
row,Compound,AC50
1,COc1ccc(OCC(=O)N2CCC3(CC2)Nc2cc(OC)ccc2-n2cccc23)cc1,38.3 µM
2,COc1ccc(-c2nc(NCCN3CCCCC3C)c3ccccc3n2)cc1 (stereo unspecified),13.4 µM
3,CCOc1ccc(NC(=O)CN2CCC3(CC2)N=C(c2ccc(Cl)cc2)C(=O)N3)cc1,> 39 µM (inactive)
4,COc1ccc(N(Cc2nc(-c3ccc(OC)c(OC)c3)oc2C)S(=O)(=O)c2ccccc2)cc1,9.25 µM
5,C/C=C/c1ccc(C2[C@H]3CNC[C@@H]2N3C(=O)NC2CCCCC2)cc1 (stereo partly specified),9.23 µM and 7.74 µM
6,CCN(CCCNC(=O)CC1Nc2c3ccccc3nc(=S)n2C1=O)c1ccccc1 (stereo unspecified),> 39 µM (inactive)
7,Cc1cc(C)c(S(=O)(=O)N2CCC(C(=O)NCCc3csc(-c4ccccc4)n3)CC2)cc1C,14.7 µM
8,CCCCC(=O)N1CCC2(CC1)Nc1ccc(Cl)cc1-n1cccc12,> 39 µM (inactive)
9,COc1ccc(-c2nc(N(Cc3ccco3)CC3CCCO3)c3ccccc3n2)cc1 (stereo unspecified),31.8 µM
10,Cc1ccn(CCNc2nccc(-c3c(C)nn(C)c3C)n2)n1,18.8 µM
11,N#Cc1cccc(-c2ccc(C3[C@@H]4CN(C(=O)Nc5ccc(C(F)(F)F)cc5)C[C@H]3N4)cc2)c1 (stereo partly specified),5.28 µM
12,COc1ccc(-c2nc(Nc3ccc(CN4CCC(C)CC4)cc3)c3ccccc3n2)cc1,9.71 µM and 14.6 µM
13,O=S(=O)(c1cccs1)N1CCCCN2[C@H](CO)[C@@H](c3ccc(/C=C/c4ccccc4)cc3)[C@@H]2C1,22 µM
14,O=C(c1ccccc1Cl)N1CCC2(CC1)Nc1cc(F)ccc1-n1cccc12,> 39 µM (inactive)
15,CC(C)c1cc(C2CCCN2Cc2c[nH]c3ccccc23)on1 (stereo unspecified),7.79 µM and 14 µM
16,CC(C)n1cnc2c(NCC3CC3)nc(C3CCN(C(=O)c4ccccc4)CC3)cc21,21.7 µM
17,Cc1ccc(-c2nc(CN(c3ccccc3)S(=O)(=O)c3ccccc3)c(C)o2)cc1,10.3 µM
18,CN1c2ccc(-c3ccccc3)cc2[C@@H]2[C@@H](CCN2C(=O)CC2CC2)[C@@H]1CO,18.5 µM and > 39 µM (inactive)
19,COc1ccc(N2CC(NC(=O)C(=O)c3c[nH]c4ccccc34)CC2=O)cc1 (stereo unspecified),28.3 µM
20,Cc1cccc(-c2ccc(C3[C@@H]4CN(Cc5cccc(F)c5)C[C@H]3N4)cc2)c1 (stereo partly specified),26.2 µM
21,OC[C@H]1Nc2ccc(-c3cccc(F)c3)cc2[C@@H]2[C@H]1CCN2Cc1ccc(F)cc1,20 µM
22,Cc1cccc(-c2ccc([C@@H]3[C@@H](CO)N4C(=O)CN(C(=O)c5ccc6c(c5)OCO6)C[C@H]34)cc2)c1,18.8 µM
23,COc1cccc(-c2ccc(C3[C@@H]4CN(S(=O)(=O)Cc5ccccc5)C[C@H]3N4)cc2)c1 (stereo partly specified),12.3 µM and 15.7 µM

row,Compound,AC50
1,CN1C(=O)c2cc(NC(=O)Cc3cccs3)ccc2OC[C@@H]2O[C@H](CC(=O)NCC3CCCCC3)CC[C@@H]21,> 39 µM (inactive)
2,O=C(Nc1ccc2c(c1)OCO2)N1C[C@@H]2N[C@H](C1)C2c1ccc(C=Cc2ccccc2)cc1 (stereo partly specified),4.2 µM and 3.84 µM
3,Cc1cc(C(=O)Nc2ccc3c(c2)C(=O)N(C)[C@H]2CC[C@@H](CC(=O)NCc4ccc(-c5ccccc5)cc4)O[C@@H]2CO3)no1,20.8 µM
4,CCOc1ccccc1C(=O)N1CCC2(CC1)Nc1ccc(Cl)cc1-n1cccc12,24.3 µM
5,N#Cc1cccc(-c2ccc([C@@H]3[C@H]4CN(Cc5ccccc5F)CCCCN4[C@H]3CO)cc2)c1,16.5 µM
6,COc1cccc(-c2ccc3c(c2)[C@H]2[C@H](CCN2S(=O)(=O)c2ccccc2F)[C@H](CO)N3)c1,19.3 µM
7,COc1ccc(-c2nc(NCCN(C)C3CCCCC3)c3ccccc3n2)cc1,3.36 µM
8,O=C(Nc1ccc(-c2nc(-c3ccccc3)co2)cc1)c1cccc(Cl)c1,35.3 µM
9,CO[C@@H]1CCN(S(=O)(=O)N(C)C)C[C@@H]1Cc1cccc(C)c1,23.5 µM
10,N#C[C@@H]1[C@@H](c2ccc(C3=CCCCC3)cc2)[C@@H](CO)N1S(=O)(=O)c1ccccc1,> 39 µM (inactive) and 5.52 µM
11,O=C(Cc1cccnc1)N1CC(=O)N2[C@H](CO)[C@@H](c3ccc(C#CC4CCCCC4)cc3)[C@@H]2C1,8.96 µM and 14.8 µM
12,Cc1ccccc1Cn1c(CN2CCC(C(=O)N3CCCC3)CC2)cc2ccccc21,> 39 µM (inactive)
13,CCc1nc(OCC(=O)Nc2ccc(Cl)cc2Cl)c2ccccc2n1,30 µM
14,CC(C)(C)c1ccc(CSC2=Nc3ccccc3C3=NC(CC(=O)NCc4ccco4)C(=O)N23)cc1 (stereo unspecified),27.4 µM
15,CCc1c2c(nc3ccc(OC(=O)N4CCC(N5CCCCC5)CC4)cc13)-c1cc3c(c(=O)n1C2)COC(=O)[C@]3(O)CC,21 µM
16,Cc1ccccc1S(=O)(=O)N1CC[C@@H]2[C@H]1c1cc(-c3cccc(F)c3)ccc1N(C)[C@H]2CO,17.7 µM
17,Cc1ccc(NC(=O)N2CCN(Cc3nc(-c4cccc(Cl)c4)oc3C)CC2)c(Cl)c1,34.2 µM
18,COc1ccc2c(c1)NC1(CCN(C(=O)Cc3ccc(OC)c(OC)c3)CC1)c1cccn1-2,> 39 µM (inactive)
19,CC(C)c1ccc(S(=O)(=O)N2CCC(C(=O)NCCc3csc(-c4ccccc4)n3)CC2)cc1,12.7 µM
20,COc1ccc(-c2nc(NCCN3CCC(C)CC3)c3ccccc3n2)cc1,9.97 µM
21,CC(C)n1ncc(NC(=O)Cn2ccc(-c3ccc(C(F)(F)F)cc3)n2)n1,24.3 µM
22,COc1cccc(NC(=O)N2CC(=O)N3[C@@H](CO)[C@@H](c4ccc(C#CCC5CCCC5)cc4)[C@@H]3C2)c1,22.5 µM
23,CCCNC(=O)N1CC(=O)N2[C@@H](CO)[C@@H](c3ccc(C#Cc4cccc(OC)c4)cc3)[C@@H]2C1,19.2 µM

row,Compound,AC50
1,CCc1ccc(S(=O)(=O)N2CCC3(CC2)NCCN=C3NCc2ccc(F)cc2)cc1,6.64 µM
2,CC(C)CC#Cc1ccc([C@H]2[C@H]3CN(C(=O)Nc4cc(F)ccc4F)CC(=O)N3[C@H]2CO)cc1,> 39 µM (inactive) and 8.8 µM
3,COc1ccc(-c2nc(NCCN3CCN(C)CC3)c3ccccc3n2)cc1,3.52 µM and 27.4 µM
4,COc1cccc(S(=O)(=O)N2CCCCN3[C@@H](CO)[C@@H](c4ccc(C#CCC(C)C)cc4)[C@@H]3C2)c1,4.66 µM and 5.61 µM and 2.22 µM
5,Cc1ccc(S(=O)(=O)N2CCC3(CC2)NCCN=C3NCc2ccccc2)c(C)c1,19.2 µM
6,Cc1ccc(CSC2=Nc3ccccc3C3=NC(CCC(=O)NCc4ccc5c(c4)OCO5)C(=O)N23)c(C)c1 (stereo unspecified),27.2 µM
7,CCOC(=O)CSC1=Nc2ccccc2C2=NC(CCC(=O)NCc3ccc(OC)cc3)C(=O)N12 (stereo unspecified),27.8 µM
8,O=C(Nc1ccc(Cl)cc1)N1[C@@H]2CNC[C@H]1C2c1ccc(-c2ccccc2)cc1 (stereo partly specified),2.02 µM and 2.94 µM
9,O=S(=O)(c1ccc(Cl)s1)N1CCC2(CC1)NCCN=C2NCc1ccccc1F,17.9 µM
10,CCOc1ccccc1N(Cc1nc(-c2ccccc2OC)oc1C)S(=O)(=O)c1cccs1,12.2 µM
11,COc1cccc(-c2nc3c(s2)CN(S(=O)(=O)c2ccccc2C)CC3)c1,6.95 µM and 17.2 µM
12,CCc1ccc(S(=O)(=O)N2CCC3(CC2)NCCN=C3NCc2ccc(F)c(Cl)c2)cc1,4.73 µM
13,COc1cccc(NC(=O)N2CC(=O)N3[C@H](CO)[C@@H](c4ccc(C#CCC5CCCC5)cc4)[C@@H]3C2)c1,11.9 µM and 9.9 µM
14,OC[C@H]1[C@@H](c2ccc(C#Cc3ccccc3F)cc2)[C@@H]2CN(CC3CCOCC3)CCCCN12,15.9 µM
15,Cc1ccccc1-c1ccc([C@@H]2[C@@H](CO)N3CCCCN(S(=O)(=O)Cc4ccccc4)C[C@H]23)cc1,19.8 µM
16,Cc1ccc(Nc2nc(-c3ccccc3Cl)nc3ccccc23)cc1,14.2 µM
17,O=S(=O)(c1ccc2c(c1)CCCC2)N1CCC2(CC1)NCCN=C2NC1CCCCC1,11.7 µM
18,O=C(NC1CCCCC1)N1C[C@@H]2N[C@H](C1)C2c1ccc(-c2ccc(F)cc2)cc1 (stereo partly specified),22.7 µM
19,OC[C@H]1[C@H](c2ccc(C#Cc3ccccc3F)cc2)[C@@H]2CN(CC3CCOCC3)CCCCN12,9.56 µM
20,CCOc1ccc(N(Cc2nc(-c3ccccc3)oc2C)S(=O)(=O)c2ccccc2)cc1,7.95 µM
21,CCc1cnc(N2[C@H](C#N)[C@@H](c3ccc(C#Cc4ccccc4F)cc3)[C@H]2CO)s1,20.5 µM and 6.21 µM
22,CCCN1CCN(CCCNc2nc(-c3ccc(OC)cc3)nc3ccccc23)CC1,21.9 µM
23,CN1c2ccc(-c3ccc(C#N)cc3)cc2[C@@H]2[C@@H](CCN2S(=O)(=O)c2ccc(F)cc2)[C@@H]1CO,15.8 µM

row,Compound,AC50
1,COc1ccc(CNC(=O)COc2nc(C)nc3ccccc23)cc1,> 39 µM (inactive)
2,CCN(c1ccccc1C)S(=O)(=O)c1cc2c3c(c1)CCC(=O)N3CCC2,13 µM
3,Cc1ccc(NC(=O)N2CCN(Cc3nc(-c4ccccc4C)oc3C)CC2)cc1F,> 39 µM (inactive)
4,CN1C(=O)c2cc(NC(=O)Cc3cccs3)ccc2OC[C@@H]2O[C@H](CC(=O)N[C@H]3CCN(Cc4ccccc4)C3)CC[C@@H]21,7.53 µM
5,Cc1ccc(CNC(=O)COc2nc(C)nc3ccccc23)cc1,> 39 µM (inactive)
6,O=C(c1ccc(-n2nc(C(F)(F)F)c3c2CCCC3)cc1)N1CCN(c2cccc(Cl)c2)CC1,8.82 µM
7,O=C(Nc1ccc(F)cc1)N1CC(=O)N2[C@H](C1)[C@@H](c1ccc(-c3cccc(F)c3)cc1)[C@@H]2CO,8.5 µM and 5.04 µM
8,CCN1CCCC1CNC(=O)C1CCN(Cc2cc3ccccc3n2Cc2cccc(C)c2)CC1 (stereo unspecified),25.5 µM
9,Cc1ccc2c(c1C)-n1cccc1C1(CCN(C(=O)c3ccccc3Br)CC1)N2,17.7 µM
10,O=C(NCCCN1CCCC1=O)C1CCN(Cc2cc3ccccc3n2Cc2cccc(F)c2)CC1,30.3 µM
11,COc1ccc(CC(=O)Nc2ccc3c(c2)CCC(=O)N3C)c(Cl)c1,21.2 µM
12,O=C(Cc1ccccn1)N1CC(=O)N2[C@H](CO)[C@@H](c3ccc(C#CCC4CCCC4)cc3)[C@H]2C1,15.8 µM
13,O=c1c(O)c(-c2ccc(O)c(O)c2)oc2cc(O)cc(O)c12,17.6 µM
14,COc1cccc(CNC2=NCCNC23CCN(S(=O)(=O)c2cc(C)c(C)cc2C)CC3)c1,9.29 µM
15,O=S(=O)(c1ccc2c(c1)CCCC2)N1CCC2(CC1)NCCN=C2NCc1ccc(F)cc1,9.4 µM
16,COc1cccc(C(=O)Nc2ccc3c(c2)C(=O)N(C)[C@@H]2CC[C@H](CC(=O)NCc4ccc(F)cc4)O[C@@H]2CO3)c1,9.13 µM
17,Cc1ccc(CNC2=NCCNC23CCN(S(=O)(=O)c2ccc(C)c(C)c2)CC3)cc1,7.83 µM
18,Clc1cccc(CN2CCC3(COCc4cnc(-c5ccccc5)nc43)C2)c1 (stereo unspecified),18.2 µM and 10.4 µM
19,COc1cc2nc(N3CCN(C(=O)c4ccco4)CC3)nc(N)c2cc1OC,18.4 µM
20,CC(C)CC#Cc1ccc([C@@H]2[C@@H](CO)N3CCCCN(C(=O)Nc4ccccc4)C[C@H]23)cc1,13.5 µM and 9.09 µM
21,COc1ccccc1-c1noc(-c2nnn(Cc3nc(-c4ccc(C)cc4)oc3C)c2C)n1,15 µM
22,COc1ccc(-c2nc(N3CCC4(CC3)OCCO4)c3ccccc3n2)cc1,20.1 µM
